Source: patent publication US20140314857A1, “FORMULATIONS FOR ENHANCED BIOAVAILABILITY OF ZANAMIVIR” (priority 2012, published 2014)

Assay: Intravenous and intraduodenal (bolus) bioavailability of zanamivir from Capmul MCM L8 25, 50, 75 µL (Example 7)
Conditions: male, Sprague-Dawley, rat, in vivo; for concentration at 0.83 hr / concentration at 1 hr / concentration at 1.5 hr / concentration at 2 hr / concentration at 0.25 hr / concentration at 0.5 hr / concentration at 0.033 hr / concentration at 0.083 hr: 1.5 mg/animal, Plasma concentration; for clearance / half-life / Vd / Tmax: 1.5 mg; for clearance: CL; for half-life: T1/2, IV 1.5 mg/animal; for Vd: Vss
Source text: Male Sprague-Dawley rats (Hilltop Labs), 3 animals per treatment group, 250-350 grams in weight, were fitted with a jugular vein cannula (JVC). Animals intended for intraduodenal dosing were also fitted with one or more intraduodenal cannula (IDC) and those intended for intravenous dosing were fitted with a second JVC. Food was withheld from the animals for a minimum of twelve hours prior to test article administration and was returned approximately four hours post-dose. Water was supplied ad libitum.
Intraduodenal doses composed of 1.5 mg of zanamivir and varying amounts of an enhancer (glycerol or Capmul MCM L8) were injected directly into the duodenum via the IDC. Intravenous dosing was conducted by the injection of 1.5 mg of zanamivir in 200 μL of PBS through a JVC. For some experiments, the absorption enhancer was administered intraduodenally 2 hr prior to administering 1.5 mg of zanamivir in PBS through a second IDC. Each intraduodenal dose was followed with the introduction of a small air bubble (˜10 μL) in the cannula followed by a flush of 125 μL of PBS to ensure the dose was given in full. The volume of PBS used for cannula flush was consistent across the treatment groups. The cannula was tied to prevent the PBS remaining in the cannula from entering the duodenum.
Blood samples collected via the JVC, approximately 400 μL each, were obtained at 2 min, 5 min, 15 min, 30 min, 60 min, 90 min, and 120 min, with sodium heparin used as an anti-coagulant. Each sample was placed into a chilled tube containing the anticoagulant and kept on ice until centrifugation at 4° C., 3,000×g, for 5 min. The plasma supernatants were stored at −70° C. until LC-MS analysis.
Dosing solution samples were assayed by LC-MS/MS using electrospray ionization. The chromatographic system consisted of Perkin Elmer series 200 micropumps and autosampler equipped with a Waters Atlantic® HILIC Silica 3 μM, 2.1×50 mm column. The mass spectrometer was a PE Sciex API 4000 with electrospray interface in multiple reaction monitoring mode. […] Stock solutions (1 mg/mL zanamivir) were prepared in water. Standards (eight concentrations) were prepared in the appropriate matched matrix (HBSSg or Sprague-Dawley rat plasma containing sodium heparin) and diluted 50-fold with methanol. Experimental samples were treated identically.
Standards and samples were prepared in Sprague Dawley rat plasma containing sodium heparin as an anticoagulant. An eight-point calibration curve was prepared at concentrations of 1000, 750, 500, 250, 100, 50, 25, and 10 ng/mL by serial dilution. Standard samples were treated identically to the study samples.
Plasma samples were extracted by protein precipitation in methanol.
In this example, the bioavailability of Zanamivir was evaluated after intraduodenal doses in male Sprague-Dawley rats. The test compound was dosed at 1.5 mg/animal through intravenous and intraduodenal routes from normal saline and Capmul MCM L8 formulations, respectively. Plasma levels were determined by LC-MS/MS analysis. Pharmacokinetic parameters were estimated by a non-compartmental model using WinNonlin v5.2.1 software.
Each ID dose in groups 2-4 will be followed with a small air bubble ([…]) and a flush of […] of PBS to insure the dose is given in full. The volume of PBS used for cannulae flush will be maintained consistent across the animals and the treatment groups. The cannula will then be tied to help prevent the PBS remaining in the cannula from entering the duodenum.

[1] = ID bolus 1.5 mg/animal, 50 µL Capmul MCM L8, Ex.7, individual rats
[2] = ID bolus 1.5 mg/animal, 50 µL Capmul MCM L8, Ex.7, mean
[3] = intraduodenal bolus, 75 μL Capmul MCM L8, mean of 3 rats
[4] = intraduodenal bolus, 75 μL Capmul MCM L8, rat 963
[5] = intraduodenal bolus, 75 μL Capmul MCM L8, rat 964
[6] = intraduodenal bolus, 75 μL Capmul MCM L8, rat 965
[7] = iv, IV 1.5 mg/animal, Normal Saline, Ex.7, individual rats
[8] = iv, IV 1.5 mg/animal, Normal Saline, Ex.7, mean

Q: What does the source list for CC(=O)NC1C(NC(=N)N)C=C(C(=O)O)OC1C(O)C(O)CO (stereo not drawn) [Zanamivir, 5-acetamido-4-guanidino-6-(1,2,3-trihydroxypropyl)-5,6-dihydro-4H-pyran-2-carboxylic acid]?
A: concentration at 0.83 hr [1]: 2620 ng/mL; concentration at 0.83 hr [2]: 2120 ng/mL; concentration at 1 hr [1]: 695 ng/mL; concentration at 1 hr [2]: 651 ng/mL; concentration at 1.5 hr [1]: 216 ng/mL; concentration at 1.5 hr [2]: 244 ng/mL; concentration at 2 hr [1]: 103 ng/mL; concentration at 2 hr [2]: 120 ng/mL; concentration at 0.25 hr [3]: 2390 ng/mL; concentration at 0.25 hr [4]: 2560 ng/mL; concentration at 0.25 hr [5]: 1710 ng/mL; concentration at 0.25 hr [6]: 2890 ng/mL; concentration at 0.5 hr [3]: 1720 ng/mL; concentration at 0.5 hr [4]: 1820 ng/mL; concentration at 0.5 hr [5]: 1130 ng/mL; concentration at 0.5 hr [6]: 2200 ng/mL; concentration at 0.83 hr [3]: 2570 ng/mL; concentration at 0.83 hr [4]: 2940 ng/mL; concentration at 0.83 hr [5]: 1690 ng/mL; concentration at 0.83 hr [6]: 3070 ng/mL; concentration at 1 hr [3]: 828 ng/mL; concentration at 1 hr [4]: 748 ng/mL; concentration at 1 hr [5]: 807 ng/mL; concentration at 1 hr [6]: 929 ng/mL; concentration at 1.5 hr [3]: 349 ng/mL; concentration at 1.5 hr [4]: 403 ng/mL; concentration at 1.5 hr [5]: 273 ng/mL; concentration at 1.5 hr [6]: 372 ng/mL; concentration at 2 hr [3]: 154 ng/mL; concentration at 2 hr [4]: 180 ng/mL; concentration at 2 hr [5]: 121 ng/mL; concentration at 2 hr [6]: 160 ng/mL; clearance [7]: 10.5 mL/min/kg; clearance [8]: 10.2 mL/min/kg; half-life (iv, Normal Saline, Ex.7, individual rats): 24.1 min; half-life (iv, Normal Saline, Ex.7, mean): 23.8 ± 2.1 min; Vd [7]: 0.276 L/kg; Vd [8]: 0.271 ± 0.01 L/kg; Tmax [7]: 0 h; Tmax [8]: 0 h; concentration at 0.033 hr [7]: 20900 ng/mL; concentration at 0.033 hr [8]: 21400 ng/mL; concentration at 0.083 hr [7]: 11000 ng/mL; concentration at 0.083 hr [8]: 12300 ng/mL; concentration at 0.25 hr [7]: 11000 ng/mL; concentration at 0.25 hr [8]: 10700 ng/mL; concentration at 0.5 hr [7]: 6270 ng/mL; concentration at 0.5 hr [8]: 6070 ng/mL; concentration at 1 hr [7]: 1560 ng/mL; concentration at 1 hr [8]: 1760 ng/mL; concentration at 1.5 hr [7]: 741 ng/mL; concentration at 1.5 hr [8]: 755 ng/mL; concentration at 2 hr [7]: 278 ng/mL; concentration at 2 hr [8]: 310 ng/mL
